Source: the supplement of paper PMC5908809

Columns and labels:
[1] = test system: normal NK cells expanded with K562-aAPC; experiment: drug sensitivity score (DSS) (DSS units); higher = more sensitive; extreme values may be limits of the assay; settings: 72 h; IL-2 2.5 ng/mL
Experimental: (§1)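 Drug sensitivity and resistance testing on K562-aAPC-expanded normal NK cells: 5 concentrations (10-fold steps over a 10,000-fold range), 72 h at 37 °C, viability by CellTiter-Glo normalised to DMSO and benzethonium chloride controls; DSS from the fitted curve.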

[2] = test system: normal NK cells expanded with K562-aAPC; experiment: percent inhibition of viability; higher = more inhibition; settings: 72 h, IL-2 2.5 ng/mL
Experimental: as §1

[3] = test system: normal primary NK cells, pool 1 (3 donors), resting (IL-2 0 ng/mL); experiment: as above; settings: 72 h
[4] = test system: normal primary NK cells, pool 2 (3 donors) (IL-2 2.5 ng/mL); experiment: as above; settings: 72 h
KAI3 (IL-2 2.5 ng/mL) [5] = experiment: as above; settings: 72 h
KHYG-1 (IL-2 2.5 ng/mL) [6] = experiment: as above; settings: 72 h
NKL (IL-2 2.5 ng/mL) [7] = experiment: as above; settings: 72 h
YT (IL-2 2.5 ng/mL) [8] = experiment: as above; settings: 72 h
IMC-1 (IL-2 20 ng/mL) [9] = experiment: as above; settings: 72 h
DERL-7 (IL-2 2.5 ng/mL) [10] = experiment: as above; settings: 72 h
NK-92 (IL-2 2.5 ng/mL) [11] = experiment: as above; settings: 72 h
[12] = test system: normal primary NK cells, pool 3 (3 donors) (IL-2 2.5 ng/mL); experiment: as above; settings: 72 h
NK-YS (IL-2 2.5 ng/mL) [13] = experiment: as above; settings: 72 h
[14] = test system: normal primary NK cells, pool 1 (3 donors) (IL-2 2.5 ng/mL); experiment: as above; settings: 72 h
SNK-6 (IL-2 2.5 ng/mL) [15] = experiment: as above; settings: 72 h
[16] = test system: normal primary NK cells, pool 1 (3 donors), resting (IL-2 0 ng/mL); experiment: drug sensitivity score (DSS) (DSS units); higher = more sensitive; extreme values may be limits of the assay; settings: 72 h
[17] = test system: normal primary NK cells, pool 2 (3 donors) (IL-2 2.5 ng/mL); experiment: as above; settings: 72 h
KAI3 (IL-2 2.5 ng/mL) [18] = experiment: as above; settings: 72 h
KHYG-1 (IL-2 2.5 ng/mL) [19] = experiment: as above; settings: 72 h
NKL (IL-2 2.5 ng/mL) [20] = experiment: as above; settings: 72 h
YT (IL-2 2.5 ng/mL) [21] = experiment: as above; settings: 72 h
IMC-1 (IL-2 20 ng/mL) [22] = experiment: as above; settings: 72 h
DERL-7 (IL-2 2.5 ng/mL) [23] = experiment: as above; settings: 72 h
NK-92 (IL-2 2.5 ng/mL) [24] = experiment: as above; settings: 72 h
[25] = test system: normal primary NK cells, pool 3 (3 donors) (IL-2 2.5 ng/mL); experiment: as above; settings: 72 h
NK-YS (IL-2 2.5 ng/mL) [26] = experiment: as above; settings: 72 h
[27] = test system: normal primary NK cells, pool 1 (3 donors) (IL-2 2.5 ng/mL); experiment: as above; settings: 72 h
SNK-6 (IL-2 2.5 ng/mL) [28] = experiment: as above; settings: 72 h

Nc1nc2[nH]cnc2c(=S)[nH]1 [Thioguanine] (max concentration tested 10000 nM)
Settings | drug sensitivity score
DERL-7 (IL-2 2.5 ng/mL) [23] | 6.23
IMC-1 (IL-2 20 ng/mL) [22] | 10
KAI3 (IL-2 2.5 ng/mL) [18] | 6.83
KHYG-1 (IL-2 2.5 ng/mL) [19] | 17.9
NK-92 (IL-2 2.5 ng/mL) [24] | 12.4
NK-YS (IL-2 2.5 ng/mL) [26] | 17.2
NKL (IL-2 2.5 ng/mL) [20] | 9.15
SNK-6 (IL-2 2.5 ng/mL) [28] | 11.7
YT (IL-2 2.5 ng/mL) [21] | 16.8
[1] | 4.06
[16] | 4.42
[17] | 4.48
[25] | 3.64
[27] | 3.98

percent inhibition of viability [%]
Settings | 1 nM | 10 nM | 100 nM | 1000 nM | 10000 nM
DERL-7 (IL-2 2.5 ng/mL) [10] | -5.49 | 1.22 | -5.6 | 8.62 | 87.2
IMC-1 (IL-2 20 ng/mL) [9] | -5.55 | -1.21 | -1.21 | 33.3 | 97.2
KAI3 (IL-2 2.5 ng/mL) [5] | -7.74 | -2.97 | -0.62 | 15.1 | 78.8
KHYG-1 (IL-2 2.5 ng/mL) [6] | -13.1 | -8.14 | -0.41 | 99.5 | 106
NK-92 (IL-2 2.5 ng/mL) [11] | -10.2 | -5.6 | 17.5 | 52.7 | 98.4
NK-YS (IL-2 2.5 ng/mL) [13] | -7.28 | -5.53 | 13.5 | 84.7 | 95.8
NKL (IL-2 2.5 ng/mL) [7] | -14 | -21.1 | 1.79 | 26.9 | 93.4
SNK-6 (IL-2 2.5 ng/mL) [15] | -10.4 | -12.3 | -12.4 | 52.4 | 96.7
YT (IL-2 2.5 ng/mL) [8] | -6.35 | -2.99 | 5.94 | 87.9 | 105
[2] | -4.14 | -5.02 | -5.79 | 6.11 | 56.7
[3] | 1.38 | 16.6 | 9.25 | 15.6 | 37.5
[4] | -0.91 | -2.84 | 9.06 | 9.05 | 55
[12] | -3.74 | -0.43 | 9.27 | 10.8 | 44
[14] | 2.84 | 12.9 | 10.3 | 6.9 | 52.7

COc1cc2nccc(Oc3ccc(NC(=O)Nc4cc(C)on4)c(Cl)c3)c2cc1OC [Tivozanib] (max concentration tested 10000 nM)
Settings | drug sensitivity score
DERL-7 (IL-2 2.5 ng/mL) [23] | 4.63
IMC-1 (IL-2 20 ng/mL) [22] | 1.23
KAI3 (IL-2 2.5 ng/mL) [18] | 2.57
KHYG-1 (IL-2 2.5 ng/mL) [19] | 4.48
NK-92 (IL-2 2.5 ng/mL) [24] | 11.5
NK-YS (IL-2 2.5 ng/mL) [26] | 5.65
NKL (IL-2 2.5 ng/mL) [20] | 3.83
SNK-6 (IL-2 2.5 ng/mL) [28] | 8.55
YT (IL-2 2.5 ng/mL) [21] | 5.67
[1] | 0
[16] | 6.37
[17] | 1.08
[25] | 0
[27] | 2.94

percent inhibition of viability [%]
Settings | 1 nM | 10 nM | 100 nM | 1000 nM | 10000 nM
DERL-7 (IL-2 2.5 ng/mL) [10] | 6.25 | -4.07 | 8.65 | 3.71 | 74.2
IMC-1 (IL-2 20 ng/mL) [9] | 0.39 | 1.69 | -1.08 | 4.81 | 20.3
KAI3 (IL-2 2.5 ng/mL) [5] | 0.42 | 12.7 | 7.97 | 8.25 | 33.2
KHYG-1 (IL-2 2.5 ng/mL) [6] | 2.06 | 3.29 | 1.48 | 11.4 | 50.2
NK-92 (IL-2 2.5 ng/mL) [11] | 17.7 | 7.65 | 22.3 | 42.5 | 71
NK-YS (IL-2 2.5 ng/mL) [13] | -1.25 | 1.72 | 3.3 | 12.8 | 64.8
NKL (IL-2 2.5 ng/mL) [7] | -0.1 | -11 | -5.13 | 8.13 | 47.4
SNK-6 (IL-2 2.5 ng/mL) [15] | 0.59 | 1.54 | -8.58 | 41.8 | 65.3
YT (IL-2 2.5 ng/mL) [8] | 8.31 | 9.93 | 8.18 | 19.9 | 61.6
[2] | -1.14 | -3.52 | -0.12 | 3.67 | -4.22
[3] | 5.37 | -0.35 | 5.84 | 18.5 | 67.5
[4] | 5.79 | 7.02 | 3.11 | -2.45 | 29.2
[12] | 8.53 | 3.31 | 5.07 | 0.75 | 3.16
[14] | -3.27 | -5.56 | -13 | 7.21 | 36.9

C[C@@H]1CCN(C(=O)CC#N)C[C@@H]1N(C)c1ncnc2[nH]ccc12 [Tofacitinib] (max concentration tested 5000 nM)
Settings | drug sensitivity score
DERL-7 (IL-2 2.5 ng/mL) [23] | 19.1
IMC-1 (IL-2 20 ng/mL) [22] | 9.8
KAI3 (IL-2 2.5 ng/mL) [18] | 20.8
KHYG-1 (IL-2 2.5 ng/mL) [19] | 25.1
NK-92 (IL-2 2.5 ng/mL) [24] | 14.5
NK-YS (IL-2 2.5 ng/mL) [26] | 13
NKL (IL-2 2.5 ng/mL) [20] | 22.6
SNK-6 (IL-2 2.5 ng/mL) [28] | 17.6
YT (IL-2 2.5 ng/mL) [21] | 8.99
[1] | 20.7
[16] | 0
[17] | 13.7
[25] | 9.81
[27] | 15.6

percent inhibition of viability [%]
Settings | 0.5 nM | 5 nM | 50 nM | 500 nM | 5000 nM
DERL-7 (IL-2 2.5 ng/mL) [10] | 4.68 | 5.82 | 37.9 | 76.5 | 100
IMC-1 (IL-2 20 ng/mL) [9] | -6.11 | -7.94 | -16.8 | 34.5 | 92.1
KAI3 (IL-2 2.5 ng/mL) [5] | -5.21 | 10.5 | 45.3 | 82.7 | 85.5
KHYG-1 (IL-2 2.5 ng/mL) [6] | -4.2 | 2.4 | 59.4 | 100 | 98.6
NK-92 (IL-2 2.5 ng/mL) [11] | -2.4 | -2.12 | 17.6 | 66.9 | 80.8
NK-YS (IL-2 2.5 ng/mL) [13] | -1.06 | 4.19 | 22 | 56.2 | 67.5
NKL (IL-2 2.5 ng/mL) [7] | -18.4 | 5 | 56.6 | 78.2 | 86.8
SNK-6 (IL-2 2.5 ng/mL) [15] | -3.6 | 10 | 22.4 | 80.2 | 77.1
YT (IL-2 2.5 ng/mL) [8] | -1.31 | -0.82 | 0.63 | 46.5 | 64.1
[2] | 0.56 | -0.5 | 34.7 | 89.7 | 96.1
[3] | -2.2 | -5.26 | -18 | 7.52 | -1.29
[4] | -14 | -8.22 | 19.6 | 60.2 | 67
[12] | -10.3 | -4.27 | 6.35 | 48.6 | 60.7
[14] | -7 | -4.5 | 19.9 | 68.1 | 69.8
